Columns and labels:
Cf-496-90 = experiment: Dose response test, growth in 96-well plates; assay type: cell-based, Chlorella fusca; settings: strain Cf-496-90; no growth, visual inspection
Description: (§1) Dose response tests with B5U were set-up in 96-well, flat bottomed plates. 200 μl medium was used in each well. 2 μl of 6 day old culture was added to each well, then 2 μl of DMSO or dilution of test compound were added to respective wells. 2-fold dilutions starting at 100 ppm were used per well. Plates were incubated at 25° C., 50 μmol/m^2/s, 16 hour photoperiod.
(§2) This was assessed by a visual inspection of growth in the 96-well plate. The inhibitor concentration at which no growth is observed is then defined as the LD.

Cf-496-85 = experiment: Dose response test, growth in 96-well plates; assay type: cell-based, Chlorella fusca; settings: strain Cf-496-85; no growth, visual inspection
Description: as §1, §2

Cf-496-78 = experiment: Dose response test, growth in 96-well plates; assay type: cell-based, Chlorella fusca; settings: strain Cf-496-78 (F275I); no growth, visual inspection
Description: as §1, §2

Cf-496-82 = experiment: Dose response test, growth in 96-well plates; assay type: cell-based, Chlorella fusca; settings: strain Cf-496-82; no growth, visual inspection
Description: as §1, §2

Cf-496-97 = experiment: Dose response test, growth in 96-well plates; assay type: cell-based, Chlorella fusca; settings: strain Cf-496-97; no growth, visual inspection
Description: as §1, §2

Cf-496-88 = experiment: Dose response test, growth in 96-well plates; assay type: cell-based, Chlorella fusca; settings: strain Cf-496-88; no growth, visual inspection
Description: as §1, §2

Cf-496-21 = experiment: Dose response test, growth in 96-well plates; assay type: cell-based, Chlorella fusca; settings: strain Cf-496-21; no growth, visual inspection
Description: as §1, §2

Cf-496-35 = experiment: Dose response test, growth in 96-well plates; assay type: cell-based, Chlorella fusca; settings: strain Cf-496-35; no growth, visual inspection
Description: as §1, §2

Cf-496-65 = experiment: Dose response test, growth in 96-well plates; assay type: cell-based, Chlorella fusca; settings: strain Cf-496-65; no growth, visual inspection
Description: as §1, §2

Cf-496-51 = experiment: Dose response test, growth in 96-well plates; assay type: cell-based, Chlorella fusca; settings: strain Cf-496-51 (F275I); no growth, visual inspection
Description: as §1, §2

Cf-496-13 = experiment: Dose response test, growth in 96-well plates; assay type: cell-based, Chlorella fusca; settings: strain Cf-496-13; no growth, visual inspection
Description: as §1, §2

Cf-496-54 = experiment: Dose response test, growth in 96-well plates; assay type: cell-based, Chlorella fusca; settings: strain Cf-496-54; no growth, visual inspection
Description: as §1, §2

Cf-496-94 = experiment: Dose response test, growth in 96-well plates; assay type: cell-based, Chlorella fusca; settings: strain Cf-496-94 (F275L); no growth, visual inspection
Description: as §1, §2
(§3) Starting dose was 100 ppm and decreasing with 2-fold dilutions with C. fusca wt, the five HST mutants and the 10 compounds to which the wt is sensitive. Plates were incubated at 25° C., 50 μmol/m2/s, 16 hour photoperiod.

Cf-496-28 = experiment: Dose response test, growth in 96-well plates; assay type: cell-based, Chlorella fusca; settings: strain Cf-496-28 (V276A); no growth, visual inspection
Description: as §1, §2, §3

Cf WT = experiment: Dose response test, growth in 96-well plates; assay type: cell-based, Chlorella fusca; settings: strain Cf WT; concentration at which no growth is observed, visual inspection
Description: as §1, §2, §3

Cf-496-8 = experiment: Dose response test, growth in 96-well plates; assay type: cell-based, Chlorella fusca; settings: strain Cf-496-8 (M278L & F279I); no growth, visual inspection
Description: as §1, §2, §3

Cf-496-15 = experiment: Dose response test, growth in 96-well plates; assay type: cell-based, Chlorella fusca; settings: strain Cf-496-15 (T277N); no growth, visual inspection
Description: as §1, §2, §3

Cf-496-19 = experiment: Dose response test, growth in 96-well plates; assay type: cell-based, Chlorella fusca; settings: strain Cf-496-19 (F275I); no growth, visual inspection
Description: as §1, §2, §3

[1] = tested on: D4292 (F276I mutant Arabidopsis thaliana HST) containing tobacco plant; experiment: Herbicide damage score after spraying, Example 3; assay type: in vivo; settings: T1 B5u 500 gai/ha, averaged across transgenic population
Description: (§4) In order to determine if the newly discovered mutations detailed in Example 1 confer resistance to HST inhibiting compounds when expressed in plants, GM tobacco lines are to be produced and tested with HST inhibiting compounds. Transgenic tobacco plants expressing the Arabidopsis HST gene with and without mutations were tested.
(§5) Populations of transgenic tobacco comprising 20-30 transgenic events per plant transformation constructs were generated as described in Example 2. These lines were clonally propagated and 1 clone per event was sprayed with 500, 100 or 50 g ai/ha of compound 1+0.2% Genapol X080 with a spray volume of 200 L/Ha (“g ai/ha” refers to grams of active compound per hectare).
(§6) Herbicidal damage was visually assessed across the population and a herbicide damage score given at 7 and 14 days. A score of 0 indicates no visible damage or stunting whereas a score of 100 indicates a complete death of the plant. 20 transgenic events (i.e. individual transgenic plants) from each GM tobacco line were transplanted to soil 1 week prior to spraying with HST inhibiting compounds. WT tobacco was included as a control.
(§7) The values in Tables 8 to 14 below refer to percentage of damage to the tested plants and show the damage scores for 20 populations of plants expressing either Arabidopsis WT HST gene (SEQ ID NO. 14), the Arabidopsis HST mutated gene according to SEQ ID NO. 27, the Arabidopsis HST mutated gene according to SEQ ID NO. 28, the Arabidopsis HST mutated gene according to SEQ ID NO. 29, the Arabidopsis HST mutated gene according to SEQ ID NO. 30, or the Arabidopsis HST mutated gene according to SEQ ID NO. 31. A control population of wild-type Samsun tobacco was also assessed for herbicide damage. […] However the mutated versions of the HST gene carrying the F276I, V277A, F280I or F280L mutations (SEQ ID NOs: 27, 28, 30 or 31) clearly display increased tolerance.

[2] = tested on: D4295 (F280I mutant Arabidopsis thaliana HST) containing tobacco plant; experiment: Herbicide damage score after spraying, Example 3; assay type: in vivo; settings: T1 B5u 500 gai/ha, averaged across transgenic population
Description: as §4, §5, §6, §7

[3] = tested on: D4294 (T278N mutant Arabidopsis thaliana HST) containing tobacco plant; experiment: Herbicide damage score after spraying, Example 3; assay type: in vivo; settings: T1 B5u 500 gai/ha; D4294 T278N; averaged across transgenic population
Description: as §4, §5, §6, §7

[4] = tested on: D4293 (V277A mutant Arabidopsis thaliana HST) containing tobacco plant; experiment: Herbicide damage score after spraying, Example 3; assay type: in vivo; settings: T1 B5u 500 gai/ha, averaged across transgenic population
Description: as §4, §5, §6, §7

Cc1nn(C)c(=O)c(-c2c(F)ccc(Cl)c2CCc2ccc(C(F)(F)F)cc2)c1OC(=O)C(C)C [B5u, [5-[3-chloro-6-fluoro-2-[2-[4-(trifluoromethyl)phenyl]ethyl]phenyl]-1,3-dimethyl-6-oxo-pyridazin-4-yl]2-methylpropanoate]
LD (lethal dose) (Cf-496-90): >100 ppm | LD (lethal dose) (Cf-496-85): >100 ppm | LD (lethal dose) (Cf-496-78): >100 ppm | LD (lethal dose) (Cf-496-82): >100 ppm | LD (lethal dose) (Cf-496-97): >100 ppm | LD (lethal dose) (Cf-496-88): >100 ppm | LD (lethal dose) (Cf-496-21): >100 ppm | LD (lethal dose) (Cf-496-35): >100 ppm | LD (lethal dose) (Cf-496-65): >100 ppm | LD (lethal dose) (Cf-496-51): >100 ppm | LD (lethal dose) (Cf-496-13): 6.25 ppm | LD (lethal dose) (Cf-496-54): >100 ppm | LD (lethal dose) (Cf-496-94): >100 ppm | LD (lethal dose) (Cf-496-28): >100 ppm | LD (lethal dose) (Cf WT): 6.25 ppm | LD (lethal dose) (Cf-496-8): >100 ppm | LD (lethal dose) (Cf-496-15): >100 ppm | LD (lethal dose) (Cf-496-19): >100 ppm | Average percentage damage [1]: 28% | Average percentage damage [2]: 35% | Average percentage damage [3]: 76% | Average percentage damage [4]: 22%

— patent US20250304990A1, “HERBICIDE RESISTANCE” (SYNGENTA CROP PROTECTION AG, priority 2021, published 2025)
